Source: paper PMC8589421, “Impact of Type II LRRK2 inhibitors on signaling and mitophagy” (Biochemical Journal, 2021)

Assays:
[1] = test system: Rab29 mediated relocalization of LRRK2 to the Golgi apparatus; experiment: Rab29 mediated recruitment of LRRK2 to the Golgi, immunofluorescence in HeLa cells; assay type: cell-based, human; settings: 5 μM GZD-824 or 1 μM GSK3357679A for 4 h
Experimental: HeLa cells were seeded on coverslips and transfected with the plasmid reported in each image 24 h before fixation. Following the treatments with the inhibitors described in figure legends, cells were washed twice in DPBS and fixed with 3.7% Paraformaldehyde pH 7.3 (Agar scientific, #R1026), 200 mM HEPES, for 20 min. Cells were then washed twice with DMEM, 20 mM HEPES, and then incubated for 10 min with DMEM, 10 mM HEPES. After two washes in DPBS, fixed cells were permeabilized with 0.2% (by vol) NP-40 in DPBS for 10 min. Cells were blocked using 1% (by mass) BSA in DPBS, then incubated for 1 h with primary antibodies diluted in 1% (by mass) BSA in DPBS, washed three times in 0.2% (by mass) BSA in DPBS, and incubated for 1 h with secondary antibodies. The coverslips were washed three times with 0.2% (by mass) BSA in PBS. Coverslips were washed once more in double distilled water and mounted on slides (VWR, #631-0909) using ProLong™ Diamond Antifade Mountant (ThermoFisher, #P36961). For localization of the Golgi compartment, Golgin-97 was stained with rabbit anti-GM97 (CST, #D8P2K) and visualized with goat anti-rabbit conjugated to Alexa Fluor 405 (Life Technologies, #P10994). HA-Rab29 was stained with mouse anti-HA (Abcam, clone HA.C5 #ab18181) and visualized with goat anti-mouse conjugated to Alexa Fluor 594 (Life Technologies, #A-11032). […]

[2] = test system: basal mitophagy, LRRK2[G2019S] MEFs; experiment: mito-QC basal mitophagy in LRRK2[G2019S] knock-in primary MEFs; assay type: cell-based, mouse; settings: 24 h, 30–300 nM GZD-824, GSK3357679A 100 nM positive control
Experimental: To assess mitophagy, wild type, G2019S knock in, and LRRK2 knock out primary mouse embryonic fibroblasts (MEFs) were derived, from time-mated pregnant females at E12.5 as previously described. Briefly, cells were plated on glass coverslips and incubated with DMEM (Gibco, 11960-044) supplemented with 10% FBS, 2 mM L-Glutamine (Gibco, 2503-081), 1% non-essential amino acids (Gibco, 11140-035), 1% Antibiotics (Penicillin/Streptomycin 100 U/ml penicillin and 100 µg/ml streptomycin; Gibco), and 150 µM β-Mercaptoethanol (Gibco, 21985-023) at 37°C under a humidified 5% CO2 atmosphere. […] GSK3357679A 100 nM (Ding et al., in prep) was used as a positive control. At the end of the treatment, MEFs were briefly washed twice in DPBS (Gibco, 14190-094), and fixed in 3.7% Paraformaldehyde pH 7.00 (Sigma, P6148), 200 mM HEPES, for 20 min. Cells were then washed two times with DMEM, 10 mM HEPES, and then incubated for 10 min with DMEM, 10 mM HEPES. […] Images were acquired using a Nikon Eclipse Ti-S fluorescence microscope with a 63× objective. Images were analyzed using the mito-QC counter as previously described. Experiments were performed in 3–4 independent experiments and data was analyzed with a one-way ANOVA followed by a Dunnett's multiple comparison test using the GraphPad Prism software (version 8.4.3 (686)).

[3] = test system: mouse embryonic fibroblast cells (MEFs); experiment: Cell morphology and attachment of MEFs; assay type: cell-based
Flag-LRRK2[G2019S] = biological target: T1, Flag-LRRK2[G2019S] (Homo sapiens, UniProt Q5S007, G2019S); experiment: IC50 LRRK2 Nictide assay, G2019S; assay type: biochemical; settings: IC50 LRRK2 G2019S (100 µM ATP), Nictide peptide substrate, value ± SD
T1 construct: towards full length wild type and G2019S pathogenic LRRK2 mutant in a biochemical assay; Flag (N); purchased ThermoFisher Scientific A15201
T1 sequence (Q5S007 whole entry G2019S): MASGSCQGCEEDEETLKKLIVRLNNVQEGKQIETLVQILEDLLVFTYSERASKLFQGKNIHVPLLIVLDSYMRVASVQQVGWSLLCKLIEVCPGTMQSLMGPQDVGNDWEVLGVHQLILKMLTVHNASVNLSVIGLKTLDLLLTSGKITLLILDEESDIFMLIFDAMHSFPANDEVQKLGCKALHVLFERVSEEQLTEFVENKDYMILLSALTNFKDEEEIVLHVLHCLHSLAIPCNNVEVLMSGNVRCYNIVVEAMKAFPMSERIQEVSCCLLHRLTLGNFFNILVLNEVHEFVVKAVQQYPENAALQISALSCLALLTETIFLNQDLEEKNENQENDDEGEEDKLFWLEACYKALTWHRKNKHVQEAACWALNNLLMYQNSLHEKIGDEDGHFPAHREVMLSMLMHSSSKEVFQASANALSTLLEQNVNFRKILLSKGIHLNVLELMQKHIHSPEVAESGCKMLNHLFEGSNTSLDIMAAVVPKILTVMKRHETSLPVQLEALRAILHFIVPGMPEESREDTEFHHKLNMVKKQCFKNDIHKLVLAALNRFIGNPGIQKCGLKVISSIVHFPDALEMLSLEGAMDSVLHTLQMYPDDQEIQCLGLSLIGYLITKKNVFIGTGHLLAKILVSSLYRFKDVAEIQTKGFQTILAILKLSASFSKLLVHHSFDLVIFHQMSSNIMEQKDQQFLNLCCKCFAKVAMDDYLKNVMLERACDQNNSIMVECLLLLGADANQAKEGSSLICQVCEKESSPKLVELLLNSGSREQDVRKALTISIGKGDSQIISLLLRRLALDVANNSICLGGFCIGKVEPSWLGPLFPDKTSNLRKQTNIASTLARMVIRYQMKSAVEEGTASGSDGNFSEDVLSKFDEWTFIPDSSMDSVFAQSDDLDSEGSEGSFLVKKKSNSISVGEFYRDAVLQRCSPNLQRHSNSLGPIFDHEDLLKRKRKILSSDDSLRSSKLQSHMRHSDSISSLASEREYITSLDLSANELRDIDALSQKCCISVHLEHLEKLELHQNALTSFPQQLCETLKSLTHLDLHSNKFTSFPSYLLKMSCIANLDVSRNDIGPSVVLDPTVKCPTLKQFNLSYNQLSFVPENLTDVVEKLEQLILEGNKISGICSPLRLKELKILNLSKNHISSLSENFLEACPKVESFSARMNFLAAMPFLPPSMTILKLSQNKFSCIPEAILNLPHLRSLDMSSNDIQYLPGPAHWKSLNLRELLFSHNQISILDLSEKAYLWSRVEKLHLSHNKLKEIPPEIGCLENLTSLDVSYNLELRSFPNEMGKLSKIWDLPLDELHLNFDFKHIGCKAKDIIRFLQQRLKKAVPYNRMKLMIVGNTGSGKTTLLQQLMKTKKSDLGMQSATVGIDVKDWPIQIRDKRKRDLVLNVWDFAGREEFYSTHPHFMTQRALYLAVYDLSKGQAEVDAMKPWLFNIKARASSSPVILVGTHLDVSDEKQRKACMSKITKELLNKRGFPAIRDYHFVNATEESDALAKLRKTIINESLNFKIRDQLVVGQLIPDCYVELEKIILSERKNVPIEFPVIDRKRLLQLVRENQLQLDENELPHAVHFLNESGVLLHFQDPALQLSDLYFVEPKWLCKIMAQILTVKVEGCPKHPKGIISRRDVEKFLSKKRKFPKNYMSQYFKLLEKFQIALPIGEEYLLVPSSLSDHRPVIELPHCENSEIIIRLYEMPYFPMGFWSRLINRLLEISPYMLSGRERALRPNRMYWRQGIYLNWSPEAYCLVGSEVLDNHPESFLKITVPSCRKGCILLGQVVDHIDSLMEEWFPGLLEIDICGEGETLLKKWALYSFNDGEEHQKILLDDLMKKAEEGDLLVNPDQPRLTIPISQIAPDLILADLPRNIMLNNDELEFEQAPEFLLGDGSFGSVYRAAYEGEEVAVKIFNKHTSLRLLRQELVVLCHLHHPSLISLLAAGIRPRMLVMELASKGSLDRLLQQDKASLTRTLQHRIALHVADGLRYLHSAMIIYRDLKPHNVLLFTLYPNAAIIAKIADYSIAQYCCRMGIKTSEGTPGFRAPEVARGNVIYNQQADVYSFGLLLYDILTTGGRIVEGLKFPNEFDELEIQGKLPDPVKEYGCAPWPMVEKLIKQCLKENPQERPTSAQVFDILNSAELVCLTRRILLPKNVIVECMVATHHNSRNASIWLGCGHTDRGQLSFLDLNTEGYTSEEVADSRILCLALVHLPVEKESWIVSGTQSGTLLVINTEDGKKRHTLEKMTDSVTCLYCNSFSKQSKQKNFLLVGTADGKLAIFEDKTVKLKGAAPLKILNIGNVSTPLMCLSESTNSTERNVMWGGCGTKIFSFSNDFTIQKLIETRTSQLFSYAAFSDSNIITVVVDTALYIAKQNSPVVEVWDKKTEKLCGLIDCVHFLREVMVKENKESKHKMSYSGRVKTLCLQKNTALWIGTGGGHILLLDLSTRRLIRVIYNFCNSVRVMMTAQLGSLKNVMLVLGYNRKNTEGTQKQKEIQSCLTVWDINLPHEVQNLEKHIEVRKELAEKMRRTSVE

Compound: Cc1ccc(C(=O)Nc2ccc(CN3CCN(C)CC3)c(C(F)(F)F)c2)cc1C#Cc1cnc2[nH]ncc2c1 [GZD-824]
- impact on Rab29 mediated recruitment of LRRK2 to the Golgi [1]: did not significantly impact
- stimulation of basal mitophagy [2]: ~2 fold
- concentration that impacted cell morphology and attachment [3]: ≥ 10 μM
- IC50 (Flag-LRRK2[G2019S]): 80 nM
